# Species: Rattus norvegicus
# Experiment: Open TG-GATES - Regimen: Single
# Format: toxicity, organism-based, Sprague-Dawley
# Parameters: regimen Single, gender Male, age 6 weeks
# Details: in vivo, ip, 1500 mg/kg, route intraperitoneal injection, dose level High; for APTT / Bas / Eos / Fbg / Hb / Ht / Lym / MCH / MCHC / MCV / Mono / Neu / PT / Plat / RBC / Ret / WBC: tissue Blood; for KIDNEY_L / KIDNEY_R / KIDNEY_TOTAL: tissue Kidney; for LIVER: tissue Liver; for A/G / ALP / ALT / AST / BUN / CRE / Ca / Cl / DBIL / GLC / IP / K / LDH / Na / PL / RALB / TBIL / TC / TG / TP / gamma-GTP: tissue Plasma
smiles,measurement,setting,value
CCCCS(=N)(=O)CCC(N)C(=O)O (configuration not stated) [BUTHIONINE SULFOXIMINE],TERMINAL_BW,3 h,213.4 g
same,APTT,3 h,16 s
same,Bas,3 h,0%
same,Eos,3 h,1%
same,Fbg,3 h,216.4 mg/dL
same,Hb,3 h,13.2 g/dL
same,Ht,3 h,39.5%
same,Lym,3 h,61.4%
same,MCH,3 h,21.6 pg
same,MCHC,3 h,33.4%
same,MCV,3 h,64.7 fL
same,Mono,3 h,9.2%
same,Neu,3 h,29%
same,PT,3 h,12 s
same,Plat,3 h,119.7 x10_4/uL
same,RBC,3 h,610.4 x10_4/ul
same,Ret,3 h,8.8%
same,WBC,3 h,106.8 x10_2/uL
same,KIDNEY_L,3 h,0.9 g
same,KIDNEY_R,3 h,1 g
same,KIDNEY_TOTAL,3 h,1.9 g
same,LIVER,3 h,10.1 g
same,A/G,3 h,2.2
same,ALP,3 h,832 IU/L
same,ALT,3 h,43.4 IU/L
same,AST,3 h,48 IU/L
same,BUN,3 h,15.2 mg/dL
same,CRE,3 h,0.4 mg/dL
same,Ca,3 h,10.9 mg/dL
same,Cl,3 h,104.8 meq/L
same,DBIL,3 h,0.066 mg/dL
same,GLC,3 h,191.2 mg/dL
same,IP,3 h,9.8 mg/dL
same,K,3 h,4.5 meq/L
same,LDH,3 h,89.2 IU/L
same,Na,3 h,138.8 meq/L
same,PL,3 h,137.8 mg/dL
same,RALB,3 h,3.8 g/dL
same,TBIL,3 h,0.3 mg/dL
same,TC,3 h,70.2 mg/dL
same,TG,3 h,57.8 mg/dL
same,TP,3 h,5.5 g/dL
same,gamma-GTP,3 h,1 IU/L
same,TERMINAL_BW,6 h,215.9 g
same,APTT,6 h,16.4 s
same,Bas,6 h,0%
same,Eos,6 h,0.8%
same,Fbg,6 h,218.6 mg/dL
same,Hb,6 h,13.3 g/dL
same,Ht,6 h,39.6%
same,Lym,6 h,67.2%
same,MCH,6 h,22 pg
same,MCHC,6 h,33.6%
same,MCV,6 h,65.5 fL
same,Mono,6 h,6.6%
same,Neu,6 h,25.6%
same,PT,6 h,10.8 s
same,Plat,6 h,124.2 x10_4/uL
same,RBC,6 h,605 x10_4/ul
same,Ret,6 h,8.3%
same,WBC,6 h,104.4 x10_2/uL
same,KIDNEY_L,6 h,0.9 g
same,KIDNEY_R,6 h,1 g
same,KIDNEY_TOTAL,6 h,1.9 g
same,LIVER,6 h,9 g
same,A/G,6 h,1.9
same,ALP,6 h,696.6 IU/L
same,ALT,6 h,31 IU/L
same,AST,6 h,56.2 IU/L
same,BUN,6 h,11.6 mg/dL
same,CRE,6 h,0.7 mg/dL
same,Ca,6 h,10.9 mg/dL
same,Cl,6 h,104.6 meq/L
same,DBIL,6 h,0.004 mg/dL
same,GLC,6 h,189.2 mg/dL
same,IP,6 h,10 mg/dL
same,K,6 h,4.5 meq/L
same,LDH,6 h,107.8 IU/L
same,Na,6 h,140 meq/L
same,PL,6 h,138.6 mg/dL
same,RALB,6 h,3.5 g/dL
same,TBIL,6 h,0.3 mg/dL
same,TC,6 h,80.8 mg/dL
same,TG,6 h,46.4 mg/dL
same,TP,6 h,5.4 g/dL
same,gamma-GTP,6 h,1.6 IU/L
same,TERMINAL_BW,9 h,211.3 g
same,APTT,9 h,17.8 s
same,Bas,9 h,0%
same,Eos,9 h,0.8%
same,Fbg,9 h,255.4 mg/dL
same,Hb,9 h,13.6 g/dL
same,Ht,9 h,40.4%
same,Lym,9 h,57.4%
same,MCH,9 h,21.8 pg
same,MCHC,9 h,33.7%
same,MCV,9 h,64.8 fL
same,Mono,9 h,5.2%
same,Neu,9 h,36.6%
same,PT,9 h,11.3 s
same,Plat,9 h,119.4 x10_4/uL
same,RBC,9 h,623.4 x10_4/ul
same,Ret,9 h,8.2%
same,WBC,9 h,103.7 x10_2/uL
same,KIDNEY_L,9 h,1 g
same,KIDNEY_R,9 h,1 g
same,KIDNEY_TOTAL,9 h,1.9 g
same,LIVER,9 h,8.6 g
same,A/G,9 h,1.9
same,ALP,9 h,782.6 IU/L
same,ALT,9 h,27 IU/L
same,AST,9 h,47.4 IU/L
same,BUN,9 h,12.2 mg/dL
same,CRE,9 h,0.5 mg/dL
same,Ca,9 h,11.3 mg/dL
same,Cl,9 h,106.2 meq/L
same,DBIL,9 h,0.012 mg/dL
same,GLC,9 h,202.4 mg/dL
same,IP,9 h,9.2 mg/dL
same,K,9 h,4.9 meq/L
same,LDH,9 h,89.4 IU/L
same,Na,9 h,138.6 meq/L
same,PL,9 h,137.6 mg/dL
same,RALB,9 h,3.7 g/dL
same,TBIL,9 h,0.3 mg/dL
same,TC,9 h,80.8 mg/dL
same,TG,9 h,37.6 mg/dL
same,TP,9 h,5.6 g/dL
same,gamma-GTP,9 h,1.4 IU/L
same,TERMINAL_BW,24 h,224.8 g
same,APTT,24 h,16.6 s
same,Bas,24 h,0%
same,Eos,24 h,1.4%
same,Fbg,24 h,273.2 mg/dL
same,Hb,24 h,13.3 g/dL
same,Ht,24 h,39.7%
same,Lym,24 h,73.8%
same,MCH,24 h,21.7 pg
same,MCHC,24 h,33.5%
same,MCV,24 h,64.8 fL
same,Mono,24 h,7.2%
same,Neu,24 h,17.8%
same,PT,24 h,11.7 s
same,Plat,24 h,119.6 x10_4/uL
same,RBC,24 h,613.4 x10_4/ul
same,Ret,24 h,9.3%
same,WBC,24 h,98.2 x10_2/uL
same,KIDNEY_L,24 h,1 g
same,KIDNEY_R,24 h,1 g
same,KIDNEY_TOTAL,24 h,2 g
same,LIVER,24 h,10.5 g
same,A/G,24 h,1.8
same,ALP,24 h,1035 IU/L
same,ALT,24 h,29.4 IU/L
same,AST,24 h,52.6 IU/L
same,BUN,24 h,19 mg/dL
same,CRE,24 h,0.5 mg/dL
same,Ca,24 h,11.3 mg/dL
same,Cl,24 h,104.2 meq/L
same,DBIL,24 h,0.024 mg/dL
same,GLC,24 h,205 mg/dL
same,IP,24 h,8.7 mg/dL
same,K,24 h,4.7 meq/L
same,LDH,24 h,104.8 IU/L
same,Na,24 h,139 meq/L
same,PL,24 h,143.6 mg/dL
same,RALB,24 h,3.7 g/dL
same,TBIL,24 h,0.3 mg/dL
same,TC,24 h,81.6 mg/dL
same,TG,24 h,67.4 mg/dL
same,TP,24 h,5.8 g/dL
same,gamma-GTP,24 h,1.4 IU/L
